# Laboratory results: patent US8124793B2, “Derivatives of ethylene methanedisulfonate as cancer chemotherapeutic agents” (priority 2007, dated 2012)
# Assays:
# BT-549 = assay: NCI screen, growth of human tumor cells: Breast Cancer BT-549; assay type: cell-based
# In short: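 Percent-growth read-out from the NCI cancer cell screen; data annotated by cancer type and molar concentration, ≥60 points per compound.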
# human cancer cells = assay: NCI screen summary over the cancers tested (negative growth of human cancer cells); assay type: cell-based; conditions: 10^−4 M conc.; cancers with negative growth / cancers tested
# Procedure: In the NCI screening process, each compound was tested and described by a minimum of 60 data points. The test data include, but are not limited to the type of cancer, the molar concentration used in the screen, and the percent growth of the cancer. In some cases, NMR and elemental analysis were used for structural assignment.
# The derivatives in the tables are grouped using the same category as in the tables 1-6.
structure (smiles),measurement,setting,value
"O=S1(=O)OCCOS(=O)(=O)C1(F)Br [NSC 665943, ethylene fluorobromomethanedisulfonate]",% Growth,"BT-549; BT-549, 10^−4 molar",12%
same,% Growth,"BT-549; BT-549, 10^−5 molar",28%
same,% Growth,"BT-549; BT-549, 10^−6 molar",52%
same,% Growth,"BT-549; BT-549, 10^−7 molar",42%
same,% Growth,"BT-549; BT-549, 10^−8 molar",44%
same,Percentage of cancers showing negative growth cancers tested,human cancer cells,10^−4 M conc. = 0/1 = 0%
same,melting point,,82 to 90 °C
